From US7115635B2, “Benzylpiperidine compound” (Mitsubishi Pharma Corporation, priority 2001, dated 2006)
Structures can show the parent of a compound that is named as a salt.

Assays:
[1] = biological target: human eosinophil; experiment: Binding inhibitory activity between chemokine ([125I]-eotaxin) and human eosinophil; conditions: 50 pmol/L [125I]-eotaxin, human eosinophil 2x10^5, 25 C, 1 hr; read-out: IC50 (concentration necessary for decreasing the binding between [125I]-eotaxin and human eosinophil by 50%)
Experimental: Human eosinophil was separated from the anticoagulation treated peripheral blood of a healthy subject by CD16 negative selection method (e.g., J. Immunol. Methods, vol., 145, pp. 105–110, 1991). The separated eosinophil (2×10^5), 50 pmol/L [^125I]-eotaxin (2000 Ci/mmoL, manufactured by AmershamPharmacia Biotech) and a test compound were mixed in 0.1 mL of a binding buffer (50 mmol/L HEPES, 1 mmol/L CaCl2, 5 mmol/L MgCl2, 0.5% bovine serum albumin (BSA), 0.1% sodium azide, pH 7.6), and the mixture was incubated at 25° C. for 1 hr in a multiscreen plate (manufactured by Millipore Corporation). After the completion of the incubation, the reaction mixture in the multiscreen plate was filtered in vacuo and washed with 0.6 mL of a cold washing buffer (50 mmol/L HEPES, 1 mmol/L CaCl2, 5 mmol/L MgCl2, 0.5 mol/L NaCl, 0.1% sodium azide, pH 7.6), and the radioactivity on the filter was measured. […] The IC50 values (concentration of a test compound necessary for decreasing the binding between [^125 I]-eotaxin and human eosinophil by 50%) of some of the compounds of the present invention were as follows.

[2] = Measurement of blood (plasma) concentration; format: in vivo; conditions: female rat, LC/MS, administered orally and intravenously (route and dose for Cmax not stated)
Experimental: The compound of the present invention was administered orally and intravenously to female rat, and the plasma concentration of the compound was measured. That is, the test compound was weighed, dissolved or suspended in a medium, diluted to the objective concentration, and orally and intravenously administered. After the administration, the blood was drawn with time from the cervical vein with a heparin treated syringe. The blood was centrifuged, the plasma was separated, and the plasma was preserved at −20° C. until analysis. The concentration of the compound in plasma was measured using LC/MS. The results are shown in the following [Table 3].

[3] = biological target: T1, CCR3 (Homo sapiens, UniProt P51677); experiment: Effect on intracellular calcium concentration in eosinophil on stimulation with CCL11; format: cell-based; conditions: human peripheral blood eosinophil, agonist CCL11 0.3 nmol/L, compound 5 min before stimulation, Fura-2 AM; read-out: IC50 of the increase in the intracellular calcium concentration
T1 construct: Eosinophil separated from the peripheral blood of a healthy subject; endogenous in cells; host or cells: eosinophils from peripheral blood of a healthy subject
T1 sequence (P51677 1-355): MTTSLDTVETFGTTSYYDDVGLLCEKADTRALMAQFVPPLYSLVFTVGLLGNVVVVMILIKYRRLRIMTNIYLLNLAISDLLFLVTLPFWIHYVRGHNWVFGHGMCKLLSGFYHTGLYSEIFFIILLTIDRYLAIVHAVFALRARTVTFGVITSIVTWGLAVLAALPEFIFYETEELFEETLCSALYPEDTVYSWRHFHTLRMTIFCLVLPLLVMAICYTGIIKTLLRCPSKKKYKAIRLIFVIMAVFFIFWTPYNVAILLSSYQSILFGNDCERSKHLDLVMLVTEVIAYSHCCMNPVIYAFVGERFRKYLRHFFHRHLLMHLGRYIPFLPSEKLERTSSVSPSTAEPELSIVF
Experimental: The effect of the compound of the present invention on intracellular calcium in eosinophil in the peripheral blood of a healthy subject on stimulation with CCL11 was elavuated by the following method.
Eosinophil separated from the peripheral blood of a healthy subject was suspended in a buffer for measurement (10 mmol/L HEPES, and 0.5% bovine serum albumin-containing hanks' balanced salt solution), and the suspension was incubated in the presence of 5 μmol/L of Fura-2 AM (manufactured by Dojindo Laboratories) at 37° C. for 45 min. After the completion of incubation, the cells were washed three times with the buffer for measurement to remove Fura-2 AM not-incorporated into the cells.
The cell suspension was adjusted to the final concentration of 1×10^6 cells/mL with the buffer for measurement and preserved in a dark place until measurement. The intracellular calcium was measured using FDSS6000 manufactured by Hamamatsu Photonics K.K. That is, a cell suspension (0.1 mL) loaded with Fura-2 AM was placed in a 96 well plate for measurement, and the plate was set on FDSS6000. The fluorescence intensities due to excitation lights at wavelengths 340 nm and 380 nm were measured. The ratio of the fluorescence intensities corresponding to the excitation lights at these two wavelengths was determined to calculate the intracellular calcium concentration. […]

Row | IC50 [1] | Cmax [2] | IC50 [3] | Structure (SMILES)
1 | 11 nM | – | – | Nc1ccc(-c2csc(SCC(=O)NC3CCN(Cc4ccc(Cl)c(Cl)c4)CC3)n2)cc1 [Example 6, [4-(4-aminophenyl)thiazol-2-ylthio]-N-[1-(3,4-dichlorobenzyl)piperidin-4-yl]acetamide]
2 | 6 nM | – | – | N=C(N)Nc1nc(-c2ccc(CCCCC(=O)NC3CCN(Cc4ccc(Cl)c(Cl)c4)CC3)cc2)cs1 [Example 1, N-[1-(3,4-dichlorobenzyl)piperidin-4-yl]-5-[4-(2-guanidinothiazol-4-yl)phenyl]valeramide]
3 | – | 3120 ng/mL | – | Nc1cccc(-c2csc(SCC(=O)NC3CCN(Cc4ccc(Cl)c(Cl)c4)CC3)n2)c1 [Example 35, [4-(3-aminophenyl)thiazol-2-ylthio]-N-[1-(3,4-dichlorobenzyl)piperidin-4-yl]acetamide]
4 | 4 nM | – | 6 nM | N=C(N)Nc1nc(-c2ccc(OCCCC(=O)NC3CCN(Cc4ccc(Cl)c(Cl)c4)CC3)cc2)cs1 [Example 9, N-[1-(3,4-dichlorobenzyl)piperidin-4-yl]-4-[4-(2-guanidinothiazol-4-yl)phenyloxy]butylamide ½ fumarate ¼ hydrate]
